Measurements: US11352349B2, “Type II topoisomerase inhibitors and methods of making and using thereof” (Ohio State Innovation Foundation, priority 2017, dated 2022)
pIC50: −log10 of the molar value. Converted amounts (≈) assume the structure as drawn. Like-named read-outs stand apart in the source and are kept apart here.

Assays:
[1] = target: T1, Staphylococcus aureus Topo IV (Staphylococcus aureus, UniProt P0C1S7+P0C1U9); assay: Staphylococcus aureus Topo IV decatenation assay; assay type: biochemical
T1 construct: purchased Inspiralis, Norwich, UK
Description: (§1) A subset of analogs was used to assess the degree of inhibition of DNA gyrase or TopoIV (Inspiralis, Norwich, UK), both to establish the mechanism of action and to evaluate the relative balance of inhibitory activities (Table 1). A subset of compound was also assayed to determine the degree of inhibition of human topoisomerase II (Inspiralis, Norwich, UK)).
(§2) In all experiments, the activity of the enzymes was determined prior to the testing of the compounds and 1 unit (U) was defined as the amount of enzyme required to just fully supercoil, relax or decatenate the substrate (see explanation of gels). This amount of enzyme was initially used in determination of control inhibitor activity. These experiments were performed in duplicate.
(§3) For all assays the final DMSO concentration was 1%. 10 mM stocks of the compounds were serially diluted into 10% DMSO at 1 mM, 0.5 mM, 0.25 mM, 0.1 mM, 0.05 mM, 0.01 mM, 0.005 mM, 0.001 mM, 0.0005 mM, 0.0001 mM and 0.00005 mM. 3.0 μl of each dilution was added to a 30 μl assay.
(§4) Bands were visualised by ethidium staining for 20 minutes and destaining for 20 minutes. Gels were scanned using documentation equipment (GeneGenius, Syngene, Cambridge, UK) and % inhibition levels (where appropriate) were obtained with gel scanning software. (GeneTools, Syngene, Cambridge, UK)
Staphylococcus aureus Topo IV Decatenation Assay
1 U of Topo IV was incubated with 200 ng kDNA DNA in a 30 μl reaction at 37° C. for 30 minutes under the following conditions: 50 mM Tris.HCl (7.5), 5 mM MgCl2, 5 mM DTT, 1.5 mM ATP, 350 mM potassium glutamate and 0.05 mg/ml BSA.
Each reaction was stopped by the addition of 30 μl chloroform/iso-amyl alcohol (26:1) and 30 μl Stop Dye, before being loaded on a 1.0% TAE gel run at 70V for 2 hours.

human topo II = target: T2, human topo II (Homo sapiens, UniProt P11388); assay: Topoisomerase II (alpha) decatenation assay; assay type: biochemical; settings: activity remaining at 100 μM compound; read-out: hTopoll (% activity remaining at 100 μM)
T2 construct: purchased Inspiralis, Norwich, UK
Description: as §1, §2, §3, §4
Topoisomerase II (Alpha) Decatenation Assay
Each reaction was stopped by the addition of 30 μl chloroform/iso-amyl alcohol (26:1) and 30 μl Stop Dye, before being loaded on a 1.0% TAE gel run at 90V for 2 hours.

USA 300 strain of MRSA = assay: MIC by broth microdilution, USA 300 strain of MRSA; assay type: cell-based, Staphylococcus aureus; settings: multiple values when multiple MIC assays were conducted; for MIC: Staphylococcus aureus, read-out: MIC USA300
Description: Minimum inhibitory concentrations were determined using the quality control strain S. aureus ATCC 29213 (Table 1) by the broth microdilution method according to guidelines of the Clinical and Laboratory Standards Institute (CLSI) (Cockerill, F. R.; et al., 2012, Methods for dilution antimicrobial susceptibility tests for bacteria that grow aerobically; approved standard-ninth edition. MA07-A9. Clinical and Laboratory Standard Institute, Wayne, Pa.). […] MICs for selected compounds were also determined using a USA 300 strain of MRSA (Hidron, et al., Lancet Infect. Dis. 2009, 9:384-392). Vancomycin was used as an additional control.

[2] = target: T3, Staphylococcus aureus gyrase (Staphylococcus aureus, UniProt P0A0K8+P20831); assay: Staphylococcus aureus gyrase supercoiling assay; assay type: biochemical
T3 construct: purchased Inspiralis, Norwich, UK
Description: as §1, §2, §3, §4
Staphylococcus aureus gyrase supercoiling
1 U of DNA gyrase was incubated with 0.5 μg of relaxed pBR322 DNA in a 30 μl reaction at 37° C. for 30 minutes under the following conditions: 40 mM HEPES. KOH (pH 7.6), 10 mM magnesium acetate, 10 mM DTT, 2 mM ATP, 500 mM potassium glutamate and 0.05 mg/ml BSA.
Each reaction was stopped by the addition of 30 μl chloroform/iso-amyl alcohol (26:1) and 30 μl Stop Dye (40% sucrose (w/v), 100 mM Tris.HCl (pH 7.5), 10 mM EDTA, 0.5 μg/ml bromophenol blue), before being loaded on a 1.0% TAE gel run at 70V for 2 hours.

S. aureus ATCC 29213 = assay: MIC by broth microdilution (CLSI), quality control strain S. aureus ATCC 29213; assay type: cell-based, Staphylococcus aureus; settings: multiple values when multiple MIC assays were conducted; for MIC: Staphylococcus aureus, ATCC29213, S. aureus ATCC 29213; for MIC 29213: S. aureus ATCC 29213
Description: Minimum inhibitory concentrations were determined using the quality control strain S. aureus ATCC 29213 (Table 1) by the broth microdilution method according to guidelines of the Clinical and Laboratory Standards Institute (CLSI) (Cockerill, F. R.; et al., 2012, Methods for dilution antimicrobial susceptibility tests for bacteria that grow aerobically; approved standard-ninth edition. MA07-A9. Clinical and Laboratory Standard Institute, Wayne, Pa.). […] Published quality control ranges for gepotidacin and ciprofloxacin were used to validate each assay. MICs for selected compounds were also determined using a USA 300 strain of MRSA (Hidron, et al., Lancet Infect. Dis. 2009, 9:384-392). Vancomycin was used as an additional control.

[3] = S. aureus Topo IV decatenation, read-out: TopolV Decat IC50
[4] = S. aureus DNA gyrase supercoiling, read-out: Gyrase IC50

T2 sequence (P11388 whole entry): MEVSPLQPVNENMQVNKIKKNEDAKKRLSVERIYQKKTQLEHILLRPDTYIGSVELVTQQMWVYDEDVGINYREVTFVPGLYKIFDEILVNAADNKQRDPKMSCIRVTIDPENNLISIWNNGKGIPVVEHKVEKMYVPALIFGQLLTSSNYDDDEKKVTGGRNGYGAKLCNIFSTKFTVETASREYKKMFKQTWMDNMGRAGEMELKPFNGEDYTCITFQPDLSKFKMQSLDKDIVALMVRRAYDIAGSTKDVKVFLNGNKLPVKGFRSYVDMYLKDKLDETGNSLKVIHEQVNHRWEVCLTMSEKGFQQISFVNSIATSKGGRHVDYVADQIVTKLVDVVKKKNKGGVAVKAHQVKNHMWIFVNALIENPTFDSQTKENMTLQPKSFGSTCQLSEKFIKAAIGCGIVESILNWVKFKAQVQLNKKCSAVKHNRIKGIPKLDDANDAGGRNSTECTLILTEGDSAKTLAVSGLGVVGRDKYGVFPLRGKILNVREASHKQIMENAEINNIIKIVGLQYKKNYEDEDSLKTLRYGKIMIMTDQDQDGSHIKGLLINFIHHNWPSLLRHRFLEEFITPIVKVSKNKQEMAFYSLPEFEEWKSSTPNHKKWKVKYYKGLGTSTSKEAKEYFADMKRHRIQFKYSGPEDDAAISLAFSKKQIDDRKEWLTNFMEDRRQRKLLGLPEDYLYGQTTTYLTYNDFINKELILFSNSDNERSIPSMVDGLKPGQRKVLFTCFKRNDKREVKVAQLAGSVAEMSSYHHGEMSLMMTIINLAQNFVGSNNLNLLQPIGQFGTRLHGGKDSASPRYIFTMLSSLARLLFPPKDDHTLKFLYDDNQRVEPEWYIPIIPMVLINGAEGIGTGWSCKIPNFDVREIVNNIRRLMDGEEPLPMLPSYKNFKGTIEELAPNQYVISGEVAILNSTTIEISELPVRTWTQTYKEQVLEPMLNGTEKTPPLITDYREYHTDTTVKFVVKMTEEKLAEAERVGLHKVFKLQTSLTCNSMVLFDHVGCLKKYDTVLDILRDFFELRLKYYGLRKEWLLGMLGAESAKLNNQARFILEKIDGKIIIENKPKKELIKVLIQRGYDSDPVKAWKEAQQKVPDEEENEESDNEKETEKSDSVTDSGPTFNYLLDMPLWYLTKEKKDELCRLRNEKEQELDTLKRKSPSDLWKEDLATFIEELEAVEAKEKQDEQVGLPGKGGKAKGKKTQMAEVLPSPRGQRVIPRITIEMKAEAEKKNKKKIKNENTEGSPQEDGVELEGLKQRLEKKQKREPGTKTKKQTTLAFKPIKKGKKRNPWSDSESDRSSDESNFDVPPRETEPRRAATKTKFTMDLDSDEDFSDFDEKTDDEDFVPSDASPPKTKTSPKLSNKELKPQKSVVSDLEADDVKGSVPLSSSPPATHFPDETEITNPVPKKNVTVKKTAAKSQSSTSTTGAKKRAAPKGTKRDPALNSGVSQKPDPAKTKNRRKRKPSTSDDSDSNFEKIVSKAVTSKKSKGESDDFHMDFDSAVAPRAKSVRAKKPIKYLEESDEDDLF
T1 sequence (P0C1S7 whole entry): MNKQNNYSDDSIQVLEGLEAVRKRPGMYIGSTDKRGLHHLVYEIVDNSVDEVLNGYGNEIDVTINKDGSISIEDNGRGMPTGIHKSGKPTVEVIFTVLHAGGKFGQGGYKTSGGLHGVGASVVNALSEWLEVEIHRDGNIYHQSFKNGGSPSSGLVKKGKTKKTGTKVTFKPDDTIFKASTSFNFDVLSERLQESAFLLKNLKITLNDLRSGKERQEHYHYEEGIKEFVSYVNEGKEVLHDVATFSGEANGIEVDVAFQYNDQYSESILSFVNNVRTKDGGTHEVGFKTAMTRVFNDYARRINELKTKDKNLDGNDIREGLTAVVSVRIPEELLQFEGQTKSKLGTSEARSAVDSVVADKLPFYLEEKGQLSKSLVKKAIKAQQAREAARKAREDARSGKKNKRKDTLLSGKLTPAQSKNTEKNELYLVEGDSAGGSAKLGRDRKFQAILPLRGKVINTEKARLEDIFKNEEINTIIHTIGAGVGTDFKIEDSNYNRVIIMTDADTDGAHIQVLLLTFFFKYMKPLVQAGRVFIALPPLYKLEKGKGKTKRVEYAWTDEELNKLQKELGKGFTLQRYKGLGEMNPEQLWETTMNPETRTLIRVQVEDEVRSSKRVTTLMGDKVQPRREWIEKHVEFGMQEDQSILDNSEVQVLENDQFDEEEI
T1 sequence (P0C1U9 whole entry): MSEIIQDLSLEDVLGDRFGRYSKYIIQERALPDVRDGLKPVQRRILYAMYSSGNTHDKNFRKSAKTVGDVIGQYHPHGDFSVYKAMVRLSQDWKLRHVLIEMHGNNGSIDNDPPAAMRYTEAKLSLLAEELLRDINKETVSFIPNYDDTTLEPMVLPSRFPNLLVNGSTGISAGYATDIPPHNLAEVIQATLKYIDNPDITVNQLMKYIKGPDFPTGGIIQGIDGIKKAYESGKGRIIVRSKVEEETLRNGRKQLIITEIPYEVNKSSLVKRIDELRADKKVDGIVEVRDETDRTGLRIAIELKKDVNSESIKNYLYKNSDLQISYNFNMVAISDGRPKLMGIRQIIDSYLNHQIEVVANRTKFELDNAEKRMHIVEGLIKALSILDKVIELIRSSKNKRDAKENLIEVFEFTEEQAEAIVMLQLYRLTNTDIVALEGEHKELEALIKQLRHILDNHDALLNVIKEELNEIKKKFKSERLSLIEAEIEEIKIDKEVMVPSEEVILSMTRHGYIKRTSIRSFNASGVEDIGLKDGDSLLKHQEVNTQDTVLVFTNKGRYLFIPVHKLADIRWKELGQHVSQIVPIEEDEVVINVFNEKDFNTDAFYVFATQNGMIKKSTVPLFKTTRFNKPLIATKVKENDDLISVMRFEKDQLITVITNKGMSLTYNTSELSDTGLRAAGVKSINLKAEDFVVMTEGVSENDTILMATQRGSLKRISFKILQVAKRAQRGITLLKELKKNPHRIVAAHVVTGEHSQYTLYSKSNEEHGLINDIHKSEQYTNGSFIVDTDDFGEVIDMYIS
T3 sequence (P20831 whole entry): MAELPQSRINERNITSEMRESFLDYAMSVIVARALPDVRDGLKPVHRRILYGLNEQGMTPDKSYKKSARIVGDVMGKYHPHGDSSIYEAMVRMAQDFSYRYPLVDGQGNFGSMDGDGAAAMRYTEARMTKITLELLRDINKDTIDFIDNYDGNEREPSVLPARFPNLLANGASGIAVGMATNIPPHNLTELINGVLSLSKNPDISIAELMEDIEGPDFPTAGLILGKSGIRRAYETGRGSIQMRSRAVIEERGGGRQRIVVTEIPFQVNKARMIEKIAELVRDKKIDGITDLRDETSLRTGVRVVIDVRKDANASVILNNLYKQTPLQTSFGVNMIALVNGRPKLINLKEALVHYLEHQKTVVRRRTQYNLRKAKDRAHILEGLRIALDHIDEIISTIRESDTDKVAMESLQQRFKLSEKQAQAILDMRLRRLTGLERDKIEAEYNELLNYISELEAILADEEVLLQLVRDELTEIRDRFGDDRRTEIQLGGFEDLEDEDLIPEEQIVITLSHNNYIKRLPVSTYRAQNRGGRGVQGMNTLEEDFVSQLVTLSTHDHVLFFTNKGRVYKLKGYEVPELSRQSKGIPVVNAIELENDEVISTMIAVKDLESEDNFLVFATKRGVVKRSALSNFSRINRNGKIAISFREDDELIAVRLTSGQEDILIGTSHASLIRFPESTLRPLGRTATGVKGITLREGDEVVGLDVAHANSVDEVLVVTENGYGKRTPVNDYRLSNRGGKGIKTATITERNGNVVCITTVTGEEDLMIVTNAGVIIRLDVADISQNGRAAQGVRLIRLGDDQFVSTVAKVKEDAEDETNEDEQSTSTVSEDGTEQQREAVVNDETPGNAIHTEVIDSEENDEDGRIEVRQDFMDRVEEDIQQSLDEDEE
T3 sequence (P0A0K8 whole entry): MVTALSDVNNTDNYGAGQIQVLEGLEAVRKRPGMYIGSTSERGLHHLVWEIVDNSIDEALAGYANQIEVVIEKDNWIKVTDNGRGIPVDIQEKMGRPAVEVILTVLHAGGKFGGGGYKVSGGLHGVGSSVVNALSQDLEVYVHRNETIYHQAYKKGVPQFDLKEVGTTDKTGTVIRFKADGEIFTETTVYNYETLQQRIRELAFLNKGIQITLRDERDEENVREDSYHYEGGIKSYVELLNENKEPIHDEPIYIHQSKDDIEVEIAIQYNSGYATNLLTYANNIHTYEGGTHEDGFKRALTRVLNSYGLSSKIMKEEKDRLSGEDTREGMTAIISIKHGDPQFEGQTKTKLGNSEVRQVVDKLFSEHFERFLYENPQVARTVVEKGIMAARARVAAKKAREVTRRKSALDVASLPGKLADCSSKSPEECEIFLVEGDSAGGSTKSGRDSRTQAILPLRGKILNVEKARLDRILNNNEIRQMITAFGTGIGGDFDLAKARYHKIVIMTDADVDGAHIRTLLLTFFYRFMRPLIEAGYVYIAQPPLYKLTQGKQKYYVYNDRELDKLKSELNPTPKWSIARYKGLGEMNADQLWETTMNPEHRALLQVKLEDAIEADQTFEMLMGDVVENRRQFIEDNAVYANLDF

Row | Structure (SMILES) | pIC50 [1, 3] | remaining activity at 100 µM (human topo II) [%] | MIC (USA 300 strain of MRSA) [mg/L] | pIC50 [2, 4] | MIC (S. aureus ATCC 29213) [mg/L] | pIC50 [1] | pIC50 [2] | MIC 29213 (S. aureus ATCC 29213) [mg/L] | MIC USA300 (USA 300 strain of MRSA) [mg/L]
1 | COc1ccc2nccc(CC[C@H]3OC[C@H](NCc4ccc5c(n4)NC(=O)CS5)CO3)c2c1 [AB-0021, 6-(((2-(2-(6-methoxyquinolin-4-yl)ethyl)-trans-1,3-dioxan-5-yl)amino)methyl)-2H-pyrido[3,2-b][1,4]thiazin-3(4H)-one] | < 4.00 | 91.1 | 0.5 (≈ 1.07 µM) | 6.23 | 0.5 (≈ 1.07 µM) |  |  |  | 
2 | COc1ccc2ncc(F)c(CC[C@H]3OC[C@H](NCc4ccc(F)c(F)c4)CO3)c2n1 [AB-0062, N-(3,4-difluorobenzyl)-2-(2-(3-fluoro-6-methoxy-1,5-naphthyridin-4-yl)ethyl)-trans-1,3-dioxan-5-amine] | < 4.00 | 90.7 | 4 (≈ 9.23 µM) | 5.35 | 2 (≈ 4.61 µM) |  |  |  | 
3 | COc1ccc2ncc(F)c(C(O)C[C@H]3OC[C@H](NCc4cc5c(cn4)OCCC5)CO3)c2c1 (stereo partly drawn) [AB-0020, 2-(5-(((3,4-dihydro-2H-pyrano[2,3-c]pyridin-6-yl)methyl)amino)-trans-1,3-dioxan-2-yl)-1-(3-fluoro-6-methoxyquinolin-4-yl)ethan-1-ol] | 4.82 | 92.9 | 1 (≈ 2.13 µM) | 6.89 | 0.5 (≈ 1.06 µM) |  |  |  | 
4 | COc1ccc2ncc(F)c(CC[C@H]3OC[C@H](NCc4ccc5c(n4)NC(=O)CO5)CO3)c2n1 [AB-0060] |  | 83.1 | 0.25 (≈ 0.533 µM) |  | 0.125 (≈ 0.266 µM) | 5.00 to 5.30 | 6.89 |  | 
5 | COc1ccc2nccc(CC[C@H]3OC[C@H](NCc4cc5c(cn4)OCCC5)CO3)c2c1 [AB-0014, N-((3,4-dihydro-2H-pyrano[2,3-c]pyridin-6-yl)methyl)-2-(2-(6-methoxyquinolin-4-yl)ethyl)-trans-1,3-dioxan-5-amine] | 4.30 to 4.60 | 93.8 | 2 (≈ 4.59 µM) | 6.48 | 1 (≈ 2.3 µM) |  |  |  | 
6 | COc1ccc2nccc(CC[C@H]3OC[C@H](NCc4cc5c(cn4)OCCO5)CO3)c2c1 [AB-0013, N-((2,3-dihydro-[1,4]dioxino[2,3-c]pyridin-7-yl)methyl)-2-(2-(6-methoxyquinolin-4-yl)ethyl)-trans-1,3-dioxan-5-amine] | 4.30 | 95.1 | 2 (≈ 4.57 µM) | 6.44 | 1 (≈ 2.29 µM) |  |  | 2 (≈ 4.57 µM) | 
7 | COc1ccc2nccc(CC[C@H]3OC[C@H](NC/C=C/c4ccccc4)CO3)c2c1 [AB-0051] | 4.00 to 4.30 | 93.7 | 1 (≈ 2.47 µM) | 6.38 | 1 (≈ 2.47 µM) |  |  |  | 
8 | COc1ccc2ncc(F)c(CC[C@H]3OC[C@H](NCc4cc5c(cn4)OCCO5)CO3)c2n1 [AB-0061, N-((2,3-dihydro-[1,4]dioxino[2,3-c]pyridin-7-yl)methyl)-2-(2-(3-fluoro-6-methoxy-1,5-naphthyridin-4-yl)ethyl)-trans-1,3-dioxan-5-amine] | 4.21 | 69.6 | 0.25 (≈ 0.548 µM) | 6.38 | 0.125 (≈ 0.274 µM) |  |  |  | 
9 | COc1ccc2nccc(CC[C@H]3OC[C@H](NCc4ccc(Cl)cc4)CO3)c2c1 [AB-0052, N-(4-chlorobenzyl)-2-(2-(6-methoxyquinolin-4-yl)ethyl)-trans-1,3-dioxan-5-amine] | < 4.00 | 97.8 | 4 (≈ 9.69 µM) | 5.94 | 1 (≈ 2.42 µM) |  |  |  | 
10 | COc1ccc2nccc(CC[C@H]3OC[C@H](NCc4ccc(Cl)c(F)c4)CO3)c2c1 [AB-0030, N-(4-chloro-3-fluorobenzyl)-2-(2-(6-methoxyquinolin-4-yl)ethyl)-trans-1,3-dioxan-5-amine] | < 4.00 | 97.8 | 1 (≈ 2.32 µM) | 6.02 | 2 (≈ 4.64 µM) |  |  |  | 
11 | COc1ccc2nccc(CC[C@H]3OC[C@H](NCc4ccc5c(n4)NC(=O)CO5)CO3)c2c1 [AB-0055, 6-(((2-(2-(6-methoxyquinolin-4-yl)ethyl)-trans-1,3-dioxan-5-yl)amino)methyl)-2H-pyrido[3,2-b][1,4]oxazin-3(4H)-one] | < 4.00 | 99.1 | 1 (≈ 2.22 µM) | 6.11 | 0.5 (≈ 1.11 µM) |  |  |  | 
12 | COc1ccc2ncc(F)c(CC[C@H]3OC[C@H](NCc4cc5c(cn4)OCCC5)CO3)c2n1 [AB-0018] | 5.27 | 79.8 | 0.25 (≈ 0.55 µM) | 6.80 | ≤ 0.25 |  |  |  | 
13 | COc1ccc2ncc(F)c(CC[C@H]3OC[C@H](NCc4ccc5c(c4)OCCO5)CO3)c2n1 [AB-0015, N-((2,3-dihydrobenzo[b][1,4]dioxin-6-yl)methyl)-2-(2-(3-fluoro-6-methoxy-1,5-naphthyridin-4-yl)ethyl)-trans-1,3-dioxan-5-amine] |  | 55 | 0.125 (≈ 0.274 µM) |  | ≤ 0.25 | 6.01 | 7.52 |  | 
14 | COc1ccc2ncc(F)c(C(O)C[C@H]3OC[C@H](NCc4ccc5c(c4)OCCO5)CO3)c2c1 (stereo partly drawn) [AB-0016, 2-(5-(((2,3-dihydrobenzo[b][1,4]dioxin-6-yl)methyl)amino)-trans-1,3-dioxan-2-yl)-1-(3-fluoro-6-methoxyquinolin-4-yl)ethan-1-ol] |  | 77.4 | 0.25 (≈ 0.531 µM) |  | 0.125 (≈ 0.266 µM) | 5.10 | 7.05 |  | 0.25 (≈ 0.531 µM)
15 | COc1ccc2nccc(CC[C@H]3OC[C@H](NCc4ccc5c(c4)NC(=O)CO5)CO3)c2c1 [AB-0057, 6-(((2-(2-(6-methoxyquinolin-4-yl)ethyl)-trans-1,3-dioxan-5-yl)amino)methyl)-2H-benzo[b][1,4]oxazin-3(4H)-one] | < 4.00 | 93 | 1 (≈ 2.22 µM) | 6.13 | 1 (≈ 2.22 µM) |  |  | 2 (≈ 4.45 µM) | 
